system: HBV rcDNA in HepDE19 cells; assay: HepDE19 assay with bDNA quantitation of HBV rcDNA; type: cell-based, hepatitis B virus (HBV); conditions: HepDE19 cells, inhibition of rcDNA formation, 7 day incubation, top concentration 25 μM; read-out: DE-19 bDNA EC50

| Structure (SMILES) | EC50 |
| --- | --- |
| O=C(Nc1ccc(F)c(Cl)c1)c1ccc(F)c2c1CCC21NC(=O)N(Cc2ccccn2)C1=O (stereo not shown) [Compound 260, N-(3-chloro-4-fluoro-phenyl)-7-fluoro-2,5-dioxo-1-(2-pyridylmethyl)spiro [imidazolidine-4,1′-indane]-4′-carboxamide] | 13000 nM |
| O=C(NC1CCc2c(C(=O)Nc3ccc(F)c(Cl)c3)ccnc21)OCc1ccccn1 (stereo not shown) [Compound 265, O-pyridin-2-ylmethyl, N-(4-((3-chloro-4-fluorophenyl)carbamoyl)-6,7-dihydro-5H-cyclopenta[b]pyridin-7-yl) carbamate] | 540 nM |
| O=C(NC1CCc2c(C(=O)Nc3ccc(F)c(Cl)c3)ccnc21)OCc1ccccn1 (stereo not shown) [Compound 266, O-Pyridin-2-ylmethyl, N-(4-((3-chloro-4-fluorophenyl)carbamoyl)-6,7-dihydro-5H-cyclopenta[b]pyridin-7-yl) carbamate] | 430 nM |
| O=C(NC1CCc2c(C(=O)Nc3ccc(F)c(Cl)c3)ccnc21)OCc1ccccn1 (stereo not shown) [Compound 267, O-Pyridin-2-ylmethyl, N-(4-((3-chloro-4-fluorophenyl)carbamoyl)-6,7-dihydro-5H-cyclopenta[b]pyridin-7-yl) carbamate] | 4900 nM |
| O=C(NC1CCc2c(C(=O)Nc3ccc(F)c(Cl)c3)cncc21)OCc1ccccn1 (stereo not shown) [Compound 269, O-pyridin-2-ylmethyl, N-(4-((3-chloro-4-fluorophenyl)carbamoyl)-6,7-dihydro-5H-cyclopenta[c]pyridin-7-yl) carbamate] | 2300 nM |
| O=C(NC1CCc2c(C(=O)Nc3ccc(F)c(Cl)c3)cncc21)OCc1ccccn1 (stereo not shown) [Compound 270, O-Pyridin-2-ylmethyl, N-(4-((3-chloro-4-fluorophenyl)carbamoyl)-6,7-dihydro-5H-cyclopenta[c]pyridin-7-yl) carbamate] | 1100 nM |
| COC(=O)NC1CC(C)(C)c2c(C(=O)Nc3ccc(F)c(Cl)c3)ccc(F)c21 (stereo not shown) [Compound 282, O-methyl, N-(4-((3-chloro-4-fluorophenyl)carbamoyl)-7-fluoro-3,3-dimethyl-2,3-dihydro-1H-inden-1-yl) carbamate] | 15000 nM |

same assay, conditions: Hepatitis B virus, HepDE19, 168 h, HepDE19 cells, inhibition of rcDNA formation, 7 day incubation, top concentration 25 μM; read-out: DE-19 bDNA EC50

| Structure (SMILES) | EC50 |
| --- | --- |
| CNC(=O)NC1CCc2c(C(=O)Nc3ccc(F)c(Cl)c3)ccnc21 (stereo not shown) [Compound 263, N-(3-Chloro-4-fluorophenyl)-7-(3-methylureido)-6,7-dihydro-5H-cyclopenta[b]pyridine-4-carboxamide] | 1900 nM |
| COC(=O)NC1CCc2c(C(=O)Nc3ccc(F)c(Cl)c3)ccnc21 (stereo not shown) [Compound 264, O-Methyl, N-(4-((3-chloro-4-fluorophenyl)carbamoyl)-6,7-dihydro-5H-cyclopenta[b]pyridin-7-yl) carbamate] | 540 nM |
| O=C(Nc1ccc(F)c(Cl)c1)c1ccc(F)c2c1CCS2(=O)=O [Compound 272, N-(3-Chloro-4-fluorophenyl)-7-fluoro-2,3-dihydrobenzo[b]thiophene-4-carboxamide 1,1-dioxide] | 220 nM |
| O=C(Nc1ccc(F)c(Cl)c1)c1cccc2c1CCS2(=O)=O [Compound 273, N-(3-Chloro-4-fluorophenyl)-2,3-dihydrobenzo[b]thiophene-4-carboxamide 1,1-dioxide] | 210 nM |
| CC(C)(C)N1Cc2c(C(=O)Nc3ccc(F)c(Cl)c3)cccc2S1(=O)=O [Compound 274, 2-(tert-Butyl)-N-(3-chloro-4-fluorophenyl)-2,3-dihydrobenzo[d]isothiazole-4-carboxamide 1,1-dioxide] | 4100 nM |
| O=C(Nc1ccc(F)c(Cl)c1)c1cccc2c1CNS2(=O)=O [Compound 275, N-(3-Chloro-4-fluorophenyl)-2,3-dihydrobenzo[d]isothiazole-4-carboxamide-1,1-dioxide] | 250 nM |
| O=C(Nc1ccc(F)c(Cl)c1)c1cccc2c1CN(CCO)S2(=O)=O [Compound 276, N-(3-Chloro-4-fluorophenyl)-2-(2-hydroxyethyl)-2,3-dihydrobenzo[d]isothiazole-4-carboxamide 1,1-dioxide] | 1400 nM |
| CN1Cc2c(C(=O)Nc3ccc(F)c(Cl)c3)cccc2S1(=O)=O [Compound 277, N-(3-Chloro-4-fluorophenyl)-2-methyl-2,3-dihydrobenzo[d]isothiazole-4-carboxamide 1,1-dioxide] | 2200 nM |
| CC(C)N1Cc2c(C(=O)Nc3ccc(F)c(Cl)c3)cccc2S1(=O)=O [Compound 278, N-(3-Chloro-4-fluorophenyl)-2-isopropyl-2,3-dihydrobenzo[d]isothiazole-4-carboxamide 1,1-dioxide] | 1300 nM |
| O=C(Nc1ccc(F)c(Cl)c1)c1cccc2c1CN(C1CC1)S2(=O)=O [Compound 279, N-(3-chloro-4-fluorophenyl)-2-cyclopropyl-2,3-dihydrobenzo[d]isothiazole-4-carboxamide 1,1-dioxide] | 580 nM |
| CC(C)(C)[S@+]([O-])N[C@H]1CCc2c(C(=O)Nc3ccc(F)c(Cl)c3)ccc(F)c21 [Compound 280, (S)-1-(((S)-tert-Butylsulfinyl)amino)-N-(3-chloro-4-fluorophenyl)-7-fluoro-2,3-dihydro-1H-indene-4-carboxamide] | 4600 nM |
| CC(C)(C)[S@@+]([O-])N[C@H]1CCc2c(C(=O)Nc3ccc(F)c(Cl)c3)ccc(F)c21 [Compound 281, (S)-1-(((R)-tert-Butylsulfinyl)amino)-N-(3-chloro-4-fluorophenyl)-7-fluoro-2,3-dihydro-1H-indene-4-carboxamide] | 4400 nM |
